Reference: the METLIN SMRT retention time set (Domingo-Almenara et al. 2019)

Assay: gradient 5% acetonitrile 3 min, to 50% in 2 min, to 85% in 15 min, held 3 min, 100 µL/min
Conditions: column: Zorbax Extend-C18 2.1 x 50 mm; eluents: water / acetonitrile, 0.1% formic acid
How it was run: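 A Zorbax Extend-C18 column (2.1 × 50 mm, 1.8 μm) run at 100 μL/min with water and acetonitrile, both containing 0.1% formic acid, separated mixtures of ~100 pure standards. The HPLC was coupled to a quadrupole time-of-flight mass spectrometer operated in positive and negative ionization mode, with dead and dwell volumes of 40 μL and 900 μL. Each retention time was taken from a computationally picked adduct peak that was then manually inspected.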

SMILES	RP-LC retention time [s]
Cc1cc(OCC(=O)N[C@@H](Cc2ccccc2)C(=O)O)c2c3c(c(=O)oc2c1)CCC3	835
CC(C)c1noc(-c2ccc(-n3cnc(C(=O)N4CCc5ccccc5C4)c3)nc2)n1	1010
Cc1c(C(=O)N2CCOCC2)cnn1-c1ccc(-c2nc(C3CC3)no2)cn1	778
COc1ccc(-c2nc(C)cc(C)c2CNS(=O)(=O)c2cccs2)cc1	642
CCOC(=O)COC(=O)c1cn(-c2ccc(CC)cc2)c(=O)c2ccccc12	737
O=C(CC(c1ccccc1)c1ccccc1)NCC(O)c1cccs1 (stereo unspecified)	809
CCOC(=O)c1nc(N(Cc2ccccc2)C(C)C)c2ccccc2n1	1000
CC1CCCCN1CCCNC(=O)C1=Cc2cc(Br)ccc2OC1 (stereo unspecified)	696
COc1ccc(NC(=O)CN2C(=O)c3ccccc3Sc3ncccc32)cc1	758
Nc1cc(C2CCN(C(=O)COc3ccccc3)CC2)no1	662
CCCOc1nc2ccccc2nc1N1CCCC(C(=O)Nc2cccc(OC)c2)C1 (stereo unspecified)	1260
O=C(Cn1ccnc1-c1ccnc(N2CCSCC2)c1)NCc1ccc(Cl)cc1	674
CCOC(=O)C(C)NC(=O)N1CCCN(C2=NS(=O)(=O)C(c3ccccc3)=C2C)CC1 (stereo unspecified)	761
COc1ccc(NC2=C(c3ccccc3)C(=O)N(Cc3ccccc3)C2=O)cc1	1140
CCc1cccc(NC(=O)C2CCCN(C(=O)C3Sc4ccccc4NC3=O)C2)c1 (stereo unspecified)	818
COc1ccc(-c2nc3ccccn3c2Nc2ccc(Cl)cc2)cc1	671
Cc1cc2c(cc1S(=O)(=O)N1CCCC1C(=O)NCc1ccccc1)OCC(=O)N2 (stereo unspecified)	721
Cc1ccc(OCC(=O)Nc2nnc(C3CC(=O)N(c4ccc(Cl)cc4)C3)o2)cc1 (stereo unspecified)	788
Cn1ncc(Cl)c1C(=O)N1CCCC1c1ccc(F)cc1 (stereo unspecified)	825
COc1ccc(-c2ccc(=O)n(Cc3nc(-c4ccc(F)cc4)no3)n2)cc1OC	892
O=C(Cc1cccn1-c1ccc(F)cc1)N1CCOCC1	760

SMILES	RP-LC retention time [s]
O=C(CN1CCSc2ccccc21)NCCCN1CCN(Cc2ccccc2)CC1	666
CCCn1c(=O)sc2cc(S(=O)(=O)N3CCC(C(=O)NCc4ccco4)CC3)ccc21	848
CCn1c(=O)n(CC(=O)N2CCCC2)c(=O)c2cnc(-c3ccc(Cl)cc3)nc21	1010
CC(C)C(=O)c1cn(CC(=O)COc2ccc(Oc3ccccc3)cc2)c2ccc(C(=O)O)cc12	1140
CCCNc1cc(N2CCC(CCC(=O)O)CC2)ncn1	600
Cc1ccc(C)c(C(=O)N2CCN(c3cc(-c4cccs4)[nH]n3)CC2)c1	847
O=C(CCn1c(=O)oc2ccccc21)NCc1ccc2c(c1)OCO2	941
CCOc1ccccc1-c1noc(-c2nnn3c2COC(c2ccc(C)cc2C)C3)n1 (stereo unspecified)	1290
Cc1ccc(CN2CCN(CC(=O)N3CCC4(CC3)OCCO4)C(=O)C2=O)cc1	653
CCn1cc(-c2nc(C(=O)Nc3cc(F)ccc3Cl)cs2)c2cccnc21	1330
O=C(Nc1ccc(F)cc1)C1CCN(C(=O)C2Sc3ccccc3NC2=O)CC1 (stereo unspecified)	746
O=C(NCc1ccsc1)C(=O)NCc1ccccc1Cl	842
CCCN(CC1CCOC1)C(=O)c1cccc(Cl)c1 (stereo unspecified)	814
COCCCN(Cc1ccco1)c1nc(-c2ccc(OC)cc2)nc2ccccc12	823
CC(CNC(=O)CCn1c(N2CCCC2)nc2ccsc2c1=O)c1ccccc1 (stereo unspecified)	819
O=C(CCc1nc(C2=CCN(Cc3ccc(Cl)cc3)CC2)no1)NCc1cccs1	688
CN(C)C(=O)c1ccc2c(c1)CCN2C(=O)C1CCC1	700
CCCN(C)C[C@@H]1CC(F)(F)CN1C1CCN(S(=O)(=O)c2ccccc2C)CC1	620
O=C(Cc1ccc(F)cc1)NCc1ccc(-c2nc(C3CC3)no2)s1	885
O=C(CCCc1nc(-c2cccnc2)no1)Nc1nc(-c2ccccc2)cs1	865
CCN1CCN(c2cc(C)c3cc(NC(=O)CC4CCCCC4)ccc3n2)CC1	594

SMILES	RP-LC retention time [s]
Cc1ccccc1CC(=O)N1CCC2(CC1)NC(=O)c1cc(F)ccc1N2C	787
O=C(Cc1ccccc1)Nc1c(-c2ccccc2)nc2ccccn12	574
COc1ccc(S(=O)(=O)N2C[C@@H](F)C[C@H]2C(=O)N2CCOCC2)cc1	669
COc1ccc(NC(=O)N(C)CCc2noc(COc3ccc(F)cc3)n2)cc1	692
C=C1CC(COc2cc(=O)oc3ccccc23)(c2ccccc2)OC1=O (stereo unspecified)	885
Cc1cccc(S(=O)(=O)NC2CCN(c3ccc(F)cc3)C2=O)c1 (stereo unspecified)	928
Cc1ccc(NC(=O)N2CCC3(CC2)NC(=O)c2ccccc2O3)cc1C	812
CS(=O)(=O)Nc1ccc(CC(=O)NCC(F)(F)F)cc1	623
CC(=O)Nc1cc(C(=O)NCc2ccccc2Br)c2ccc(C)nc2c1	623
O=C(NCCc1csc(-c2ccc(F)cc2)n1)c1ccc2nsnc2c1	876
Cc1ccccc1Oc1nccn2c(=O)n(CC(=O)Nc3ccc(F)cc3)nc12	838
Cc1cc(-c2ccc(S(=O)(=O)N3CCN(c4ccccn4)CC3)s2)n[nH]1	623
Cc1ccccc1CNC(=O)C1(C)CCCN(C(=O)NCc2ccco2)C1 (stereo unspecified)	809
CCn1c(=O)c(-c2noc(C(=O)N3CCN(c4ccccn4)CC3)n2)nn(-c2ccc(F)cc2)c1=O	676
O=C(NCc1cc(F)cc(F)c1)C1CCCN(c2cnc3nccnc3c2)C1 (stereo unspecified)	707
Cc1ccc(-c2nocc2CCC(=O)NCc2ccc(F)cc2)cc1	919
CN1C(=O)c2cccnc2Sc2cc(NC(=O)c3ccc(Cl)s3)ccc21	870
CC(C)CCNC(=O)Cc1cn(C)c2ncccc12	679
CCCc1c(C(=O)O)nnn1Cc1cccc(OC)c1	738
CCC1CCCCN1C(=O)CSc1nc2c3cc(OC)ccc3n(C)c2c(=O)n1CC (stereo unspecified)	1070
Cc1ccc(-c2cc3n(n2)CCCN(C(=O)c2cccc(C#N)c2)C3)cc1	862

More lines, now with the values ahead:

RP-LC retention time [s]	SMILES
818	Cc1ccccc1Cn1nc2ccc(S(=O)(=O)N3CCOCC3)cn2c1=O
585	Nc1nc(N2CCN(c3ccccn3)CC2)ncc1C(=O)Nc1ccccc1
646	Cc1cc(C)n2c(Nc3c(C)cccc3C)c(-c3ccc(O)cc3)nc2n1
620	CCC(C)NC(=O)N1CC(n2cc(C(=O)N(C)CCOC)nn2)C1 (stereo unspecified)
998	COc1cccc(-c2noc(Cn3nc(-c4ccccc4)ccc3=O)n2)c1
667	COc1ccc(Cl)cc1NC(=O)N1CCN(c2ccc3nncn3n2)CC1
890	O=C(CC1CCCC1)N1CCCCC1c1nncn1Cc1ccccc1 (stereo unspecified)
814	CCC(C)NC(=O)NC1CCN(C2=NS(=O)(=O)C(c3cccc(Cl)c3)=C2C)CC1 (stereo unspecified)
792	CCc1ccc(CNC(=O)CN2C(=O)NC3(CCCCC3)C2=O)cc1
876	CC1CCC(NC(=O)C2CCN(S(=O)(=O)c3ccc4c(c3)NC(=O)C(C)O4)CC2)CC1 (stereo unspecified)
1030	COc1ccc(-c2nc(Cc3noc(-c4cccc(OC)c4)n3)c(C)o2)cc1
865	CC(C)CCNC(=O)CCCn1c2ccccc2c2cnn(C)c(=O)c21
655	O=C(CSc1ccc2nnc(-c3cccs3)n2n1)NCc1ccc(F)cc1
840	COC(=O)CCNC(=O)C1c2ccccc2C(=O)N(Cc2ccccc2)C12CCCC2 (stereo unspecified)
839	O=C([C@@H]1C[C@H](F)CN1S(=O)(=O)c1ccc(Br)s1)N1CCCCC1
730	CCCS(=O)(=O)N1CCC(c2noc(-c3cccnc3)n2)C1 (stereo unspecified)
1100	O=S(=O)(c1ccccc1Cl)N1CCC(c2noc(COCc3ccccc3)n2)CC1
1080	CCn1cc(-c2ccc(OC)cc2)cc1C(=O)N1CCCCCC1
627	O=S(=O)(c1cccc2nsnc12)N1CCCn2nc(-c3cccnc3)cc2C1
648	Cc1noc(C)c1CNC(=O)c1ccccn1
620	CCOc1ccccc1CN1C[C@@H](CO)[C@H](c2ccccn2)C1
810	Cc1cc(NC(=O)c2cc(Cl)sc2Cl)n(C(C)C)n1
716	CCCNC(=O)Nc1cc2c(cc1N1CCC(C(=O)OCC)CC1)n(C)c(=O)n2C
544	CC(=O)N1CCN(c2nc3c(s2)CC(C(=O)NCc2ccc(F)cc2F)CC3)CC1 (stereo unspecified)
683	Cn1ncc2c(Nc3cccc([N+](=O)[O-])c3)ncnc21
885	N#Cc1ccc(NC(=O)Cn2cc(-c3ccccc3)c3ncn(C4CC4)c(=O)c32)cc1
804	Cn1nc(C(=O)N2CCCC2)c2c1CCN(C(=O)Nc1cccc(Br)c1)C2
997	CC(C)n1c(=O)sc2cc(S(=O)(=O)N3CCC(C(=O)N(C)Cc4ccccc4)CC3)ccc21
